Data on ten compounds can be found in the NIST ThermoML archive (doi:10.1021/je0341413).

For data set [1] the following is noted: Liquid; for viscosity: 101.3 kPa; for mass density: 101.33 kPa.
A short description of data set [2]: xn = mol fraction of the nth substance listed. To be noted: 101.3 kPa, Liquid, x2 = 0.

Each structure is given as a SMILES string. Numbers after ± are expanded uncertainties.

Usually viscosity stands for the internal friction of a fluid under shear. The term mass density denotes the mass of a sample divided by its volume.

Regarding `CCCCO` [butan-1-ol], the viscosity in data set [1] (293.15 K) is recorded as 2.941 ± 0.092 mPa·s; in data set [1] (298.15 K), 2.62 ± 0.083 mPa·s; in data set [1] (303.15 K), 2.255 ± 0.071 mPa·s; in data set [1] (313.15 K), 1.754 ± 0.056 mPa·s. The mass density in data set [1] (298.15 K) came to 805.9 ± 0.4 kg/m3.

As to `CCC(C)O` (stereo not drawn) [butan-2-ol], the viscosity came to 3.619 ± 0.23 mPa·s in data set [1] (293.15 K), 3.115 ± 0.2 mPa·s in data set [1] (298.15 K), 2.503 ± 0.16 mPa·s in data set [1] (303.15 K) and 1.784 ± 0.11 mPa·s in data set [1] (313.15 K). The mass density in data set [1] (298.15 K) was determined as 802.4 ± 0.5 kg/m3.

`CCOC(=O)OCC` [diethyl carbonate]: the viscosity in data set [1] (293.15 K) is reported as 0.795 ± 0.025 mPa·s; in data set [1] (298.15 K), 0.749 ± 0.024 mPa·s; in data set [1] (303.15 K), 0.699 ± 0.022 mPa·s; in data set [1] (313.15 K) it was 0.623 ± 0.02 mPa·s. The mass density in data set [1] (298.15 K) was 969.1 ± 0.3 kg/m3.

Take `CCO` [ethanol]: the viscosity in data set [1] (293.15 K) stood at 1.194 ± 0.037 mPa·s; in data set [1] (298.15 K) it was 1.105 ± 0.035 mPa·s; in data set [1] (303.15 K) it was 0.972 ± 0.031 mPa·s; in data set [1] (313.15 K), 0.826 ± 0.026 mPa·s. For the same compound, in data set [1] (298.15 K), the mass density was found to be 785 ± 0.5 kg/m3.

Consider `CO` [methanol], for which the viscosity in data set [1] (293.15 K) is reported as 0.591 ± 0.019 mPa·s; in data set [1] (298.15 K), 0.553 ± 0.018 mPa·s; in data set [1] (303.15 K), 0.514 ± 0.016 mPa·s; in data set [1] (313.15 K), 0.45 ± 0.014 mPa·s. In addition, the mass density in data set [1] (298.15 K) was found to be 786.6 ± 0.5 kg/m3.

For the compound `CCCCCO` [pentan-1-ol], the viscosity is listed as 3.979 ± 0.13 mPa·s in data set [1] (293.15 K), 3.347 ± 0.11 mPa·s in data set [1] (298.15 K), 2.932 ± 0.093 mPa·s in data set [1] (303.15 K) and 2.256 ± 0.072 mPa·s in data set [1] (313.15 K). For the same compound, the mass density in data set [1] (298.15 K) is 810.9 ± 0.6 kg/m3.

On to `CCCO` [propan-1-ol], for which the viscosity in data set [1] (293.15 K) is 2.198 ± 0.069 mPa·s; in data set [1] (298.15 K), 1.97 ± 0.062 mPa·s; in data set [1] (303.15 K), 1.707 ± 0.054 mPa·s; in data set [1] (313.15 K), 1.361 ± 0.043 mPa·s. For the same compound, in data set [1] (298.15 K), the mass density stood at 799.5 ± 0.5 kg/m3.

As for `CCCO` [propan-1-ol] + CCOC(=O)OCC, the viscosity in data set [2] (293.15 K) is listed as 2.198 ± 0.069 mPa·s; in data set [2] (298.15 K), 1.97 ± 0.062 mPa·s; in data set [2] (303.15 K), 1.707 ± 0.054 mPa·s; in data set [2] (313.15 K), 1.361 ± 0.043 mPa·s.

Take `CC(C)O` [propan-2-ol]: the viscosity in data set [1] (293.15 K) is given as 2.386 ± 0.075 mPa·s; in data set [1] (298.15 K) it was 2.098 ± 0.067 mPa·s; in data set [1] (303.15 K) it was 1.763 ± 0.056 mPa·s; in data set [1] (313.15 K) it was 1.325 ± 0.042 mPa·s. The mass density in data set [1] (298.15 K) was 780.9 ± 0.5 kg/m3.

Consider `CC(C)O` [propan-2-ol] + CCOC(=O)OCC, for which the viscosity in data set [2] (293.15 K) is given as 2.386 ± 0.075 mPa·s; in data set [2] (298.15 K) it was 2.098 ± 0.067 mPa·s; in data set [2] (303.15 K), 1.763 ± 0.056 mPa·s; in data set [2] (313.15 K) it was 1.325 ± 0.042 mPa·s.
